Assay results reported in patent publication US9339554B2, “Tunable, biodegradable linker molecules for transient conjugation of components in drug delivery systems, and drug delivery systems prepared therewith” (CRISTAL DELIVERY B.V., priority 2010, dated 2016).

Test: In vitro release of DMS from DMS-prodrug-loaded core-cross-linked polymeric micelles
Assay type: physicochemical
Conditions: for 50% release of DMS: physiological conditions, prodrug covalently entrapped in CCL PM
Experimental: The eluent was acetonitril/H2O (23:77, v/v) with a flow rate of 1 mL/min. The sample volume was 7.5 μL. UV detection occurred at 246 nm.
The hydrolysis rate of a specific ester was pH-dependent in its turn, in that at pH 8.4 hydrolysis was accelerated as compared to the hydrolysis rate at pH 7.4. […] The same trend is consistently observed at different pH (i.e. 7.4 and 8.4) and for the different types of micelles (based on HPMAm and HEMAm).

Row | 50% release of DMS | DMS release rate followed by UPLC (prodrug CCL PM, buffer pH 7.4 / 8.4, 37° C.) | Compound
1 | ~4 weeks | very slow release | C=C(C)C(=O)OCCSCC(=O)OCC(=O)[C@@]1(O)[C@H](C)CC2[C@@H]3CCC4=CC(=O)C=C[C@]4(C)[C@@]3(F)[C@@H](O)CC21C (stereo partly drawn) [DMSL1, 2-(2-(2-((8S,9R,10S,11S,16R,17R)-9-fluoro-11,17-dihydroxy-10,13,16-trimethyl-3-oxo-6,7,8,9,10,11,12,13,14,15,16,17-dodecahydro-3H-cyclopenta[α]phenanthren-17-yl)-2-oxoethoxy)-2-oxoethylthio)ethyl methacrylate]
2 | ~1 weeks |  | C=C(C)C(=O)OCCS(=O)(=O)CC(=O)OCC(=O)[C@@]1(O)[C@H](C)CC2[C@@H]3CCC4=CC(=O)C=C[C@]4(C)[C@@]3(F)[C@@H](O)CC21C (stereo partly drawn) [DMSL3, 2-(2-(2-((8S,9R,10S,11S,16R,17R)-9-fluoro-11,17-dihydroxy-10,13,16-trimethyl-3-oxo-6,7,8,9,10,11,12,13,14,15,16,17-dodecahydro-3H-cyclopenta[α]phenanthren-17-yl)-2-oxoethoxy)-2-oxoethylsulfonyl)ethyl methacrylate]
